{
  "source": "patent US8288385B2",
  "about": "“6-(3-aza-bicyclo[3.1.0]hex-3-yl)-2-phenyl-pyrimidines” (Actelion Pharmaceuticals Ltd., priority 2009, dated 2012)",
  "data": [
    {"target": "T1, human P2Y12 receptor (Homo sapiens, UniProt Q9H244)", "T1 construct": "expressed in transfected cells; host or cells: Chinese Hamster Ovary (CHO) cells", "T1 sequence (Q9H244 whole entry)": "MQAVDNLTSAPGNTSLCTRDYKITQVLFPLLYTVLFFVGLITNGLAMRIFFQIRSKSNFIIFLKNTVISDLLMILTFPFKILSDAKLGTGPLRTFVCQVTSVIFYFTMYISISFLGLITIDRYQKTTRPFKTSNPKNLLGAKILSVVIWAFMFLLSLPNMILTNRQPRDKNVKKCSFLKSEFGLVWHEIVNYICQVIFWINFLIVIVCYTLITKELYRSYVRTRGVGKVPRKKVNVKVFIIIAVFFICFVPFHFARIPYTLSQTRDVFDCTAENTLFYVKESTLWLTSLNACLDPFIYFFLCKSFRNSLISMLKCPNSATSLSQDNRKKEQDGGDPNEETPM", "experiment": "P2Y12 receptor binding assay", "details": "CHO cells with recombinant expression of the human P2Y12 receptor; tritium-labeled 2-methyl-S-ADP; RT, 2 hours", "method": "P2Y12 Receptor Binding Assay\nChinese Hamster Ovary (CHO) cells with recombinant expression of the human P2Y12 receptor were cultured in 24 well cell-culture plates. Cells were washed three times with binding buffer (50 mM Tris pH 7.4, 100 mM NaCl, 1 mM EDTA, 0.5% BSA). The cells were then incubated with 0.5 ml per well binding buffer containing tritium-labeled 2-methyl-thio-adenosine 5′-diphosphate (2-methyl-S-ADP) (between 100,000 and 300,000 dpm per well) and various concentrations of test compounds. After incubation at RT for 2 hours, cells were washed three times with binding buffer. Then, cells were solubilized by addition of 0.5 ml solubilization buffer (SDS, NaOH, EDTA). The content of each well was then transferred into beta-counter vials and 2.0 ml of Ultima Gold Scintillation liquid was added.", "units": {"IC50": "nM"}, "values": [
      {"smiles": "CCCCOC(=O)N1CCN(C(=O)[C@H](CCC(=O)O)NC(=O)c2cc(N3C[C@@H]4[C@H](C3)[C@H]4C(=O)O)nc(-c3ccccc3)n2)CC1", "note": "[Example 1, (1α,5α,6α)-3-{6-[(S)-1-(4-Butoxycarbonyl-piperazine-1-carbonyl)-3-carboxy-propylcarbamoyl]-2-phenyl-pyrimidin-4-yl}-3-aza-bicyclo[3.1.0]hexane-6-carboxylic acid]", "IC50": 10},
      {"smiles": "CCCCOC(=O)N1CCN(C(=O)[C@H](CCC(=O)O)NC(=O)c2cc(N3C[C@@H]4[C@H](C3)[C@@H]4C(=O)O)nc(-c3ccccc3)n2)CC1", "note": "[Example 2, (1α,5α,6β)-3-{6-[(S)-1-(4-Butoxycarbonyl-piperazine-1-carbonyl)-3-carboxy-propylcarbamoyl]-2-phenyl-pyrimidin-4-yl}-3-aza-bicyclo[3.1.0]hexane-6-carboxylic acid]", "IC50": 3.7},
      {"smiles": "CCCCOC(=O)N1CCN(C(=O)[C@H](CCC(=O)O)NC(=O)c2cc(N3C[C@@H]4[C@H](C3)[C@H]4C(=O)OCC)nc(-c3ccccc3)n2)CC1", "note": "[Example 3, (1α,5α,6α)-3-{6-[(S)-1-(4-Butoxycarbonyl-piperazine-1-carbonyl)-3-carboxy-propylcarbamoyl]-2-phenyl-pyrimidin-4-yl}-3-aza-bicyclo[3.1.0]hexane-6-carboxylic acid ethyl ester]", "IC50": 8.7},
      {"smiles": "CCCCOC(=O)N1CCN(C(=O)[C@H](CCC(=O)O)NC(=O)c2cc(N3C[C@@H]4[C@H](C3)[C@@H]4C(=O)OCC)nc(-c3ccccc3)n2)CC1", "note": "[Example 4, (1α,5α,6β)-3-{6-[(S)-1-(4-Butoxycarbonyl-piperazine-1-carbonyl)-3-carboxy-propylcarbamoyl]-2-phenyl-pyrimidin-4-yl}-3-aza-bicyclo[3.1.0]hexane-6-carboxylic acid ethyl ester]", "IC50": 15},
      {"smiles": "CCCCOC(=O)N1CCN(C(=O)[C@H](CCC(=O)O)NC(=O)c2cc(N3C[C@@H]4[C@H](C3)[C@H]4NC(=O)OC(C)(C)C)nc(-c3ccccc3)n2)CC1", "note": "[Example 5, 4-((S)-2-{[6-((1α,5α,6α)-6-tert-Butoxycarbonylamino-3-aza-bicyclo[3.1.0]hex-3-yl)-2-phenyl-pyrimidine-4-carbonyl]amino}-4-carboxy-butyryl)-piperazine-1-carboxylic acid butyl ester]", "IC50": 6.2},
      {"smiles": "CCCCOC(=O)N1CCN(C(=O)[C@H](CCC(=O)O)NC(=O)c2cc(N3C[C@@H]4[C@H](C3)[C@@H]4NC(=O)OC(C)(C)C)nc(-c3ccccc3)n2)CC1", "note": "[Example 6, 4-((S)-2-{[6-((1α,5α,6β)-6-tert-Butoxycarbonylamino-3-aza-bicyclo[3.1.0]hex-3-yl)-2-phenyl-pyrimidine-4-carbonyl]-amino}-4-carboxy-butyryl)-piperazine-1-carboxylic acid butyl ester]", "IC50": 7.3},
      {"smiles": "CCCCOC(=O)N1CCN(C(=O)[C@H](CCC(=O)O)NC(=O)c2cc(N3C[C@@H]4[C@@H](N)[C@@H]4C3)nc(-c3ccccc3)n2)CC1", "note": "[Example 7]", "IC50": 7.5},
      {"smiles": "CCCCOC(=O)N1CCN(C(=O)[C@H](CCC(=O)O)NC(=O)c2cc(N3C[C@@H]4[C@H](N)[C@@H]4C3)nc(-c3ccccc3)n2)CC1", "note": "[Example 8, 4-((S)-2-{[6-((1α,5α,6β)-6-Amino-3-aza-bicyclo[3.1.0]hex-3-yl)-2-phenyl-pyrimidine-4-carbonyl]-amino}-4-carboxy-butyryl)-piperazine-1-carboxylic acid butyl ester]", "IC50": 7},
      {"smiles": "CCCCOC(=O)N1CCN(C(=O)[C@H](CCC(=O)O)NC(=O)c2cc(N3C[C@@H]4[C@@H](CO)[C@@H]4C3)nc(-c3ccccc3)n2)CC1", "note": "[Example 9, 4-((S)-4-Carboxy-2-{[6-((1α,5α,6α)-6-hydroxymethyl-3-aza-bicyclo[3.1.0]hex-3-yl)-2-phenyl-pyrimidine-4-carbonyl]-amino}-butyryl)-piperazine-1-carboxylic acid butyl ester]", "IC50": 8}
    ]}
  ]
}
